# Measured values: US12678423B2, “Therapeutic agent for amyotrophic lateral sclerosis and composition for treatment” (KEIO UNIVERSITY, priority 2016, dated 2026)
# Experiments:
# Type in all cases: cell-based, human
# [1] = system: motor neurons induced to differentiate from iPS cells derived from ALS patients (FUS-ALS) having a mutation in FUS; test: Neurite length, FUS-ALS motor neurons (screening, Example I-8)
# Protocol: For each differentiation-induced motor neuron in Example I-1, the changes over time in the neurite length were measured. A Bio station CT (Nikon Corp.) was used to measure the neurite length over time. FIG. 1 is a graph showing measurement results of changes over time in the neurite length. The vertical axis represents neurite length (relative value), and the horizontal axis represents the number of days of culturing from the start of differentiation induction.
# (§1) Using the differentiation-induced motor neurons in Example I-1, drugs which cause the ALS phenotype to be restored were screened from existing drug libraries with the neurite length, ectopic localization of FUS protein, stress granule formation, LDH leakage ratio, CV-caspase 3-positive ratio, phosphorylated TDP-43 protein inclusion formation, and the like as indices.
# (§2) As a result of the screening, ropinirole was found as a promising therapeutic agent for ALS. Tables 5 and 6 show the improvement ratio (%) in the ALS phenotype due to adding ropinirole to the medium. Here, ropinirole was added to the medium on days 35 to 40 from the start of the differentiation induction of each iPS cell. Here, it is assumed that days 35 to 40 from the start of differentiation induction correspond to the early stage of the ALS disease.
# (§3) The improvement ratio (%) of the ALS phenotype was calculated by Equation (1).
# (§4) [formula] [In Equation (1), A represents a measurement value of motor neurons induced to differentiate from iPS cells derived from ALS patients in the absence of ropinirole, and B represents a measurement value of motor neurons induced to differentiate from iPS cells derived from ALS patients in the presence of ropinirole, and C represents a measurement value of motor neurons induced to differentiate from iPS cells derived from healthy subjects in the absence of ropinirole.]
# (§5) Subsequently, in the same manner as above, the efficacy in cases of administering lower concentrations of ropinirole was evaluated.
# (§6) Each drug was added to the medium at a final concentration of 10 μM.
# [2] = system: motor neurons induced to differentiate from iPS cells derived from SALS patients; test: Neurite length, sporadic ALS model (Example III-1); settings: final concentration 1 μM, days 35 to 40, measured on day 40, FIG. 10
# Description: In the same manner as in Example I-1, iPS cells derived from sporadic ALS (may be referred to below as “SALS”) patients were differentiated into motor neurons. All the iPS cells used were derived from dermal fibroblasts. Below, each differentiated motor neuron is identified by the patient number from whom the neuron was derived.
# In the same manner as in Example II-1, iPS cells derived from sporadic ALS (SALS) patients were induced to differentiate into motor neurons, and then ropinirole with a final concentration of 1 μM was added to the medium. More specifically, for the period of days 35 to 40 from the start of differentiation induction, ropinirole having a final concentration of 1 μM was added to the medium. In addition, a group for which ropinirole was not added to the medium was prepared as a control. In addition, for comparison, iPS cells derived from healthy subjects were differentiated into motor neurons in the same manner as in Example I-1. No ropinirole was added to the medium of these motor neurons. As the iPS cells derived from a healthy subject, the same cells as used in Example I-1 were used.
# Subsequently, on day 40 from the start of differentiation induction, the neurite length was measured for each motor neuron in the same manner as in Example I-2.
# FIG. 10 is a graph showing measurement results of the neurite length of each motor neuron. […]
# [3] = system: motor neurons induced to differentiate from iPS cells derived from ALS patients (FUS-ALS) having a mutation in FUS; test: Neurite length in late stage ALS disease, FUS-ALS (Example I-9); settings: final concentration 1 μM, added days 50 to 62 from start of differentiation induction, FIG. 14
# Protocol: The efficacy of ropinirole was evaluated in the same manner as in Example I-8, except that the timing of adding ropinirole was changed to days 50 to 62 from the start of the differentiation induction of each iPS cell. It is assumed that days 50 to 62 after the start of induction of differentiation correspond to the late stage of the ALS disease.
# Specifically, ropinirole was added to a medium of motor neurons induced to differentiate from iPS cells derived from ALS patients (FUS-ALS) having a mutation in FUS and motor neurons induced to differentiate from iPS cells derived from ALS patients (TDP-43-ALS) having a mutation in TDP-43 and the changes over time in the neurite length were measured. The measurement of neurite length was carried out in the same manner as in Example I-2. Ropinirole was added to the medium at a final concentration of 1 μM.
# FIG. 14(a) is a graph showing the results of measurement of the changes over time in the neurite length of each motor neuron. In FIG. 14(a), the vertical axis represents the neurite length (relative value), the horizontal axis represents the number of days of culturing from the start of differentiation induction, and “+ROPI” represents the result of adding ropinirole to the medium. In addition, FIG. 14(b) is a graph enlarging the boxed portion of the graph of FIG. 14(a). […]
# [4] = system: motor neurons induced to differentiate from iPS cells derived from ALS patients (TDP-43-ALS) having a mutation in TDP-43; test: Phosphorylated TDP-43 protein inclusion formation, TDP-43-ALS motor neurons
# Description: Therefore, on day 40 from the start of differentiation induction, each differentiation-induced motor neuron in Example I-1 was immunostained and the formation of phosphorylated TDP-43 protein inclusions was examined.
# as §1, §2, §3, §4, §5, §6
# [5] = final concentration 1 μM, added days 35 to 40
# [6] = final concentration 10 μM, added days 35 to 40
smiles,measurement,setting,value
"CCCN(CCC)CCc1cccc2c1CC(=O)N2 [Ropinirole, 4-(2-di-n-propylaminoethyl)-2(3H)-indole]",Neurite length improvement ratio,[1]; final concentration 0.1 nM,3.22%
same,Neurite length improvement ratio,[1]; final concentration 1 nM,32.3%
same,Neurite length improvement ratio,[1]; final concentration 10 nM,45.8%
same,Neurite length improvement ratio,"[1]; final concentration 0.1 μM, added days 35 to 40 from start of differentiation induction",43.3%
same,Neurite length improvement ratio,[1]; [5],58.3%
same,Neurite length improvement ratio,[1]; [6],61.3%
same,Neurite length reduction,[2],significantly suppressed
same,"Neurite length (changes over time), late stage",[3],neuroprotective action (maintenance of neurite length)
same,TDP-43 inclusion formation improvement ratio,[4]; final concentration 0.1 nM,15.3%
same,TDP-43 inclusion formation improvement ratio,[4]; final concentration 1 nM,55.3%
same,TDP-43 inclusion formation improvement ratio,[4]; final concentration 10 nM,60.3%
same,TDP-43 inclusion formation improvement ratio,"[4]; final concentration 0.1 μM, added days 35 to 40",56.2%
same,TDP-43 inclusion formation improvement ratio,[4]; [5],69.2%
same,TDP-43 inclusion formation improvement ratio,[4]; [6],74.2%
